system: formalin model; experiment: Formalin test in mice (primary in vivo screening and ED50); parameters: species or system ICR male mice; details: Mus musculus, ip; mice, intraperitoneal, doses 0.1, 1, 5 and 10 mg/kg, second phase; read-out: ED50 in the second phase of the formalin model
Experimental: For primary screening, the synthesized compounds were administered to mice via intraperitoneal injection at a dose of 5 mg/kg using the formalin model. The percentage inhibition in the second phase, relative to the vehicle control (DMSO/cremophor EL/distilled water = 10:10:80), was calculated.
Each compound was assessed using four doses (0.1, 1, 5, and 10 mg/kg) by intraperitoneal injection.
ICR male mice weighing 23–25 g was purchased from Samtako Korea (Osan, Republic of Korea). ICR mice were housed four per cage in a room with 12 h light–dark cycles. The temperature and relative humidity of the room were maintained at 22 ± 2 °C and 50 ± 5%, respectively. Food and water were available ad libitum. The procedures for animal testing were approved by Medifron Animal Care and Use Committees (Approval number; Medifron 2019-9). Efforts were made to minimize animal suffering and to reduce the number of animals used.
Mice were randomly assigned to five groups (four per group) and single-dose drugs were administered by intraperitoneal injection. The formalin-induced licking paw test was modified from the method described by Dubuisson and Dennis. Each mouse was acclimated to an acrylic observation chamber for at least 30 min before the injection of formalin. Twenty microliters of 2% formalin were injected subcutaneously into the right side of the hind paw. Each mouse was then placed in an individual clear plastic observational chamber (15 × 15 × 15 cm, volume = […] or 3.375 L), and the pain response was recorded for a period of 30 min. The summation of time (in seconds) spent in licking and biting responses of the injected paw during each 5 min block was measured as an indicator of the pain response. The first period (early phase) was recorded 0–5 min after the injection of formalin, and the second period (late phase) was recorded 20–30 min after the injection. The test compound was administered intraperitoneally 30 min before the formalin injection at […]: 0.1, 1, 5, and 10 mg/kg. The vehicle was DMSO/Cremophor EL/distilled water (10/10/80). The data were expressed as the mean ± standard error of the mean (SEM). Statistical analysis was assessed by one-way analysis of variance (ANOVA) with Bonferroni’s post hoc test. Statistical significance was set at p-value < 0.05, with values of p <0.001 considered highly significant.

SMILES	ED50
N#Cc1ccc2[nH]cc(C(=O)NCCCN3CCN(c4ccc5ccccc5n4)CC3)c2c1 [Compound 45, 5-Cyano-N-(3-(4-(quinolin-2-yl)piperazin-1-yl)propyl)-1H-indole-3-carboxamide]	0.93 mg/kg
Cc1ccc(Sc2ccccc2N2CCN(CCNC(=O)c3c[nH]c4ccc(C#N)cc34)CC2)c(C)c1 [Compound 31, 5-Cyano-N-(2-(4-(2-((2,4-dimethylphenyl)thio)phenyl)piperazin-1-yl)ethyl)-1H-indole-3-carboxamide]	2.66 mg/kg
N#Cc1ccc2[nH]cc(C(=O)NCCN3CCN(c4cccc(C(F)(F)F)c4)CC3)c2c1 [Compound 22, 5-Cyano-N-(2-(4-(3-(trifluoromethyl)phenyl)piperazin-1-yl)ethyl)-1H-indole-3-carboxamide]	1.3 mg/kg
N#Cc1ccc2[nH]cc(C(=O)NCCCN3CCN(c4cccc(Cl)c4)CC3)c2c1 [Compound 37, N-(3-(4-(3-Chlorophenyl)piperazin-1-yl)propyl)-5-cyano-1H-indole-3-carboxamide]	3.2 mg/kg
N#Cc1ccc2[nH]cc(C(=O)NCCN3CCN(c4cccc(Cl)c4)CC3)c2c1 [Compound 21, N-(2-(4-(3-Chlorophenyl)piperazin-1-yl)ethyl)-5-cyano-1H-indole-3-carboxamide]	2.3 mg/kg

same assay, conditions: mice, 5 mg/kg intraperitoneal, second phase

SMILES	% Inhibition in the second phase of the formalin model relative to vehicle control
N#Cc1ccc2[nH]cc(C(=O)NCCCN3CCN(C(=O)c4ccc(F)cc4)CC3)c2c1 [Compound 49, 5-Cyano-N-(3-(4-(4-fluorobenzoyl)piperazin-1-yl)propyl)-1H-indole-3-carboxamide]	20.3%
N#Cc1ccc2[nH]cc(C(=O)NCCN3CCN(C(=O)c4ccc(F)cc4)CC3)c2c1 [Compound 33, 5-Cyano-N-(2-(4-(4-fluorobenzoyl)piperazin-1-yl)ethyl)-1H-indole-3-carboxamide]	24.2%
N#Cc1ccc2[nH]cc(C(=O)NCCN3CCC(c4noc5cc(F)ccc45)CC3)c2c1 [Compound 52, 5-Cyano-N-(2-(4-(6-fluorobenzo[d]isoxazol-3-yl)piperidin-1-yl)ethyl)-1H-indole-3-carboxamide]	46.7%
N#Cc1ccc2[nH]cc(C(=O)NCCCN3CCN(C(=O)c4cccc(C(F)(F)F)c4)CC3)c2c1 [Compound 50, 5-Cyano-N-(3-(4-(3-(trifluoromethyl)benzoyl)piperazin-1-yl)propyl)-1H-indole-3-carboxamide]	2.9%
N#Cc1ccc2[nH]cc(C(=O)NCCN3CCN(c4ccc(F)cc4)CC3)c2c1 [Compound 23, 5-Cyano-N-(2-(4-(4-fluorophenyl)piperazin-1-yl)ethyl)-1H-indole-3-carboxamide]	35.8%
N#Cc1ccc2[nH]cc(C(=O)NCCN3CCN(c4ccc(Cl)cc4)CC3)c2c1 [Compound 24, N-(2-(4-(4-Chlorophenyl)piperazin-1-yl)ethyl)-5-cyano-1H-indole-3-carboxamide]	1.6%
N#Cc1ccc2[nH]cc(C(=O)NCCCN3CCC(n4c(=O)[nH]c5cc(Cl)ccc54)CC3)c2c1 [Compound 55, N-(3-(4-(5-Chloro-2-oxo-2,3-dihydro-1H-benzo[d]imidazol-1-yl)piperidin-1-yl)propyl)-5-cyano-1H-indole-3-carboxamide]	24.0%
N#Cc1ccc2[nH]cc(C(=O)NCCN3CCN(c4cccc(C(F)(F)F)n4)CC3)c2c1 [Compound 26, 5-Cyano-N-(2-(4-(6-(trifluoromethyl)pyridin-2-yl)piperazin-1-yl)ethyl)-1H-indole-3-carboxamide]	48.6%
N#Cc1ccc2[nH]cc(C(=O)NCCN3CCN(C(=O)c4cccc(C(F)(F)F)c4)CC3)c2c1 [Compound 34, 5-Cyano-N-(2-(4-(3-(trifluoromethyl)benzoyl)piperazin-1-yl)ethyl)-1H-indole-3-carboxamide]	2.1%
N#Cc1ccc2[nH]cc(C(=O)NCCCN3CCN(c4ccc(Cl)cc4)CC3)c2c1 [Compound 40, N-(3-(4-(4-Chlorophenyl)piperazin-1-yl)propyl)-5-cyano-1H-indole-3-carboxamide]	4.7%
N#Cc1ccc2[nH]cc(C(=O)NCCN3CCN(c4ccc(C(F)(F)F)cc4)CC3)c2c1 [Compound 25, 5-Cyano-N-(2-(4-(4-(trifluoromethyl)phenyl)piperazin-1-yl)ethyl)-1H-indole-3-carboxamide]	19.8%
N#Cc1ccc2[nH]cc(C(=O)NCCCN3CCN(c4ncccc4C(F)(F)F)CC3)c2c1 [Compound 44, 5-Cyano-N-(3-(4-(3-(trifluoromethyl)pyridin-2-yl)piperazin-1-yl)propyl)-1H-indole-3-carboxamide]	3.7%
N#Cc1ccc2[nH]cc(C(=O)NCCCN3CCN(C(=O)C4COc5ccccc5O4)CC3)c2c1 (stereo not drawn) [Compound 51, 5-Cyano-N-(3-(4-(2,3-dihydrobenzo[b][1,4]dioxine-2-carbonyl)piperazin-1-yl)propyl)-1H-indole-3-carboxamide]	27.3%
N#Cc1ccc2[nH]cc(C(=O)NCCCN3CCN(c4ccc5oc(C(N)=O)cc5c4)CC3)c2c1 [Compound 46, N-(3-(4-(2-Carbamoylbenzofuran-5-yl)piperazin-1-yl)propyl)-5-cyano-1H-indole-3-carboxamide]	49.2%
N#Cc1ccc2[nH]cc(C(=O)NCCN3CCC(n4c(=O)[nH]c5cc(Cl)ccc54)CC3)c2c1 [Compound 53, N-(2-(4-(5-Chloro-2-oxo-2,3-dihydro-1H-benzo[d]imidazol-1-yl)piperidin-1-yl)ethyl)-5-cyano-1H-indole-3-carboxamide]	14.3%
N#Cc1ccc2[nH]cc(C(=O)NCCCN3CCN(c4cccc(C(F)(F)F)n4)CC3)c2c1 [Compound 42, 5-Cyano-N-(3-(4-(6-(trifluoromethyl)pyridin-2-yl)piperazin-1-yl)propyl)-1H-indole-3-carboxamide]	45.7%
N#Cc1ccc2[nH]cc(C(=O)NCCCN3CCN(c4cccc(C(F)(F)F)c4)CC3)c2c1 [Compound 38, 5-Cyano-N-(3-(4-(3-(trifluoromethyl)phenyl)piperazin-1-yl)propyl)-1H-indole-3-carboxamide]	37.1%
N#Cc1ccc2[nH]cc(C(=O)NCCCN3CCN(c4ncccc4Cl)CC3)c2c1 [Compound 43, N-(3-(4-(3-Chloropyridin-2-yl)piperazin-1-yl)propyl)-5-cyano-1H-indole-3-carboxamide]	45.3%
N#Cc1ccc2[nH]cc(C(=O)NCCN3CCN(c4ncccc4Cl)CC3)c2c1 [Compound 27, N-(2-(4-(3-Chloropyridin-2-yl)piperazin-1-yl)ethyl)-5-cyano-1H-indole-3-carboxamide]	48.0%
N#Cc1ccc2[nH]cc(C(=O)NCCN3CCN(C(=O)C4COc5ccccc5O4)CC3)c2c1 (stereo not drawn) [Compound 35, 5-Cyano-N-(2-(4-(2,3-dihydrobenzo[b][1,4]dioxine-2-carbonyl)piperazin-1-yl)ethyl)-1H-indole-3-carboxamide]	0.4%
N#Cc1ccc2[nH]cc(C(=O)NCCN3CCN(c4ccc5oc(C(N)=O)cc5c4)CC3)c2c1 [Compound 30, N-(2-(4-(2-Carbamoylbenzofuran-5-yl)piperazin-1-yl)ethyl)-5-cyano-1H-indole-3-carboxamide]	23.8%
NCC1(CC(=O)O)CCCCC1 [gabapentin, reference compound]	70.7%
N#Cc1ccc2[nH]cc(C(=O)NCCCN3CCN(c4ccc(C(F)(F)F)cc4)CC3)c2c1 [Compound 41, 5-Cyano-N-(3-(4-(4-(trifluoromethyl)phenyl)piperazin-1-yl)propyl)-1H-indole-3-carboxamide]	16.5%
N#Cc1ccc2[nH]cc(C(=O)NCCN3CCN(c4cccc(F)c4)CC3)c2c1 [Compound 20, 5-Cyano-N-(2-(4-(3-fluorophenyl)piperazin-1-yl)ethyl)-1H-indole-3-carboxamide]	3.1%
N#Cc1ccc2[nH]cc(C(=O)NCCN3CCN(c4nsc5ccccc45)CC3)c2c1 [Compound 32, N-(2-(4-(Benzo[d]isothiazol-3-yl)piperazin-1-yl)ethyl)-5-cyano-1H-indole-3-carboxamide]	14.3%
